One data set has as its system 5637. The data set is described as follows: Colony formation (CFU) assay, 5637. In kind it is cell-based. The following applies: 5637, bladder. The procedure:
(§1) In vitro experiments were conducted using the colony formation unit (CFU) assay on various cell lines. The CFU assay involved first establishing what cell plating density enabled the development of clearly interspersed colonies on a six-well plate when left to grow for around 14 days. […] At or around day 14 when clearly interspersed colonies were visible in the DMSO-treated wells, the cells were fixed and stained using 0.1% crystal violet in 10% ethanol for 20 minutes at room temperature. The plates were imaged then the amount of crystal violet stain in each well was quantified by extracting the crystal violet into 10% acetic acid and the absorbance measured at 565 nm.
(§2) For certain cell lines, multiple IC50 values were taken, and those are separated by commas. Synergy scores are in parentheticals.

In a further data set the test system is 647V. Briefly: Colony formation (CFU) assay, 647V. In kind it is cell-based. The conditions noted are these: bladder. As for the experimental part:
as §1, §2

A further data set relates to A549. Briefly: Colony formation (CFU) assay, A549. In kind it is cell-based. The following applies: A549, lung. The procedure:
as §1, §2

The test system of a further data set is HBCx8. The data set is described as follows: Colony formation (CFU) assay, HBCx8. In kind it is cell-based. The conditions noted are these: HBCx8, breast. The procedure:
as §1, §2

The next data set relates to HBCx9. The data set is described as follows: Colony formation (CFU) assay, HBCx9. In kind it is cell-based. The conditions noted are these: HBCx9, breast. The procedure: as §1, §2
A further data set has as its system HCC1806. Briefly: Colony formation (CFU) assay, HCC1806. It counts as cell-based. The following applies: HCC1806, breast; CFU ~14 days; wells with DMSO or 300 nM Compound 1; read-out: Chemotherapy nM IC50s (converted). As for the experimental part: as §1, §2
The next data set relates to HCT116. Briefly: Colony formation (CFU) assay, HCT116. In kind it is cell-based. The conditions noted are these: HCT116, colon; CFU ~14 days; wells with DMSO or 300 nM Compound 1; read-out: Chemotherapy nM IC50s. The procedure: as §1, §2
A further data set deals with HT1376. Briefly: Colony formation (CFU) assay, HT1376. In kind it is cell-based. The conditions noted are these: HT1376, bladder. As for the experimental part: as §1, §2
A further data set has as its system KU1919. Briefly: Colony formation (CFU) assay, KU1919. It counts as cell-based. The conditions noted are these: KU1919, bladder. As for the experimental part: as §1, §2
The next data set deals with NCIH1650. The data set is described as follows: Colony formation (CFU) assay, NCIH1650. In kind it is cell-based. The following applies: NCIH1650, lung. The procedure: as §1, §2
The subject of another data set is NCIH596. Briefly: Colony formation (CFU) assay, NCIH596. It counts as cell-based. The conditions noted are these: NCIH596, lung. The procedure:
as §1, §2

Another data set has as its system SUM149PT. The data set is described as follows: Colony formation (CFU) assay, SUM149PT. The conditions noted are these: breast. In kind it is cell-based. The procedure:
as §1, §2

Another data set deals with U2OS. Briefly: Colony formation (CFU) assay, U2OS. In kind it is cell-based. The conditions noted are these: bone. The procedure: as §1, §2
A further data set has as its system UBLC1. The data set is described as follows: Colony formation (CFU) assay, UBLC1. The following applies: UBLC1, bladder. It counts as cell-based. As for the experimental part:
as §1, §2

The test system of another data set is UMUC3. The data set is described as follows: Colony formation (CFU) assay, UMUC3. The conditions noted are these: UMUC3, bladder. It counts as cell-based. The procedure: as §1, §2
The subject of a further data set is various cell lines. Briefly: Colony formation (CFU) assay, summary over cell lines of Table 1. The following applies: combination of USP1 inhibitor (Compound 1, 300 nM) and the chemotherapy agent. It counts as cell-based. The procedure:
as §1
In certain cell lines, combinations of the disclosure are synergistic. In some aspects, these combinations are determined to have a Bliss score is about 6, about 7, about 8, about 9, about 10, about 11, about 12, about 13, about 14, about 15, about 16, about 17, about 18, about 19, about 20 or about 25.

The nature of data set [1]: Maximum tolerated dose of Compound 1 cocrystal in combination with cisplatin, non-tumor bearing mice. The conditions noted are these: non-tumor bearing female Balb/c nude mice; Compound 1 oral gavage once daily 28 days + cisplatin i.v. once a week days 0, 7, 14, 21. The procedure:
The maximum tolerated dose (MTD) of the USP1 inhibitor Compound 1 cocrystal in combination with cisplatin was evaluated in non-tumor bearing Balb/c nude mice. 6-8 week old female Balb/c nude mice from Beijing Anikeeper Biotech Co. Ltd were randomized into groups of 5 for control, cisplatin (4 mg/kg) alone, cisplatin (5 mg/kg) alone, cisplatin (6 mg/kg) alone, Compound 1 (50 mg/kg) and cisplatin (4 mg/kg) combination group, Compound 1 (100 mg/kg) and cisplatin (4 mg/kg) combination group, Compound 1 (300 mg/kg) and cisplatin (4 mg/kg) combination group, Compound 1 (50 mg/kg) and cisplatin (5 mg/kg) combination group, Compound 1 (100 mg/kg) and cisplatin (5 mg/kg) combination group, Compound 1 (300 mg/kg) and cisplatin (5 mg/kg) combination group, Compound 1 (50 mg/kg) and cisplatin (6 mg/kg) combination group, Compound 1 (100 mg/kg) and cisplatin (6 mg/kg) combination group, and Compound 1 (300 mg/kg) and cisplatin (6 mg/kg) combination group. Mice were treated with the relevant dose of Compound 1 via oral gavage once daily for 28 days or relevant dose of cisplatin via intravenous injection once a week on days 0, 7, 14, and 21. […]
Body weights were measured daily. Tolerability was assessed by monitoring body weight and calculating body weight changes as % from body weight on day of treatment start (day 0), as shown in FIG. 1-3. […]

The conditions of data set [2]: single dose in Balb/c nude mice; Aston W., et al., BMC Cancer 17:684 (2017); cited from earlier work.
In data set [3] the test system is MDA-MB-436 cell line-derived breast xenograft. Briefly: Anti-tumor activity, MDA-MB-436 cell line-derived breast xenograft model. In kind it is in vivo. The following applies: Compound 1 100 mg/kg p.o. once daily 28 days + cisplatin 2 mg/kg i.v. once weekly x4; MDA-MB-436, NOD SCID mice; FIG. 6A. As for the experimental part: Six to eight week old female NOD SCID mice from Beijing Anikeeper Biotech CO, Ltd were implanted subcutaneously with 1×10^7 MDA-MB-436 cells. When tumors established to a tumor volume of approximately 240 mm^3 mice were randomized into groups of 5 and were assigned into the following groups: control, cisplatin (2 mg/kg), Compound 1 (100 mg/kg) or Compound 1 (100 mg/kg) and cisplatin (2 mg/kg) combination. Cisplatin was administered intravenously via tail vein once weekly for a total of 4 doses. Compound 1 was administered via oral gavage once daily for 28 days. Body weight and tumor volume were measured twice per week. Tumor volume was calculated as mean and standard error of the mean for each treatment group.

Data set [4] concerns HBCx-8 patient-derived breast xenograft. The data set is described as follows: Anti-tumor activity, HBCx-8 patient-derived breast xenograft model. In kind it is in vivo, Athymic nude mice. The following applies: Compound 1 100 mg/kg p.o. once daily 42 days + cisplatin 5 mg/kg i.v. once weekly x3; HBCx-8 PDX, nude mice; FIG. 7A. As for the experimental part: Six to nine week old female Athymic nude mice from Envigo were anesthetized and a 20 mm^3 tumor fragment placed subcutaneously via incision in the flank. […] Cisplatin was administered intravenously via tail vein once weekly for a total of 3 doses. Compound 1 was administered via oral gavage once daily for 42 days. Body weight and tumor volume were measured twice per week. Tumor volume was calculated as mean and standard error of the mean for each treatment group.
Background: Xenograft models place foreign cells or tissue in a host animal.

The subject of data set [5] is HBCx-11 patient-derived breast xenograft. The data set is described as follows: Anti-tumor activity, HBCx-11 patient-derived breast xenograft model. The conditions noted are these: Compound 1 100 mg/kg p.o. once daily 28 days + cisplatin 3 mg/kg i.v. once weekly x4; HBCx-11 PDX, nude mice; FIG. 8A. In kind it is in vivo, Athymic nude mice. As for the experimental part: Six to nine week old female Athymic nude mice from Envigo were anesthetized and a 20 mm^3 tumor fragment placed subcutaneously via incision in the flank. When tumors established to a tumor volume of between 75 and 196 mm^3 mice were randomized into groups of 3 and were assigned into the following groups: control, Compound 1 (100 mg/kg), cisplatin (3 mg/kg) or Compound 1 (100 mg/kg) and cisplatin (3 mg/kg) combination. Cisplatin was administered intravenously via tail vein once weekly for a total of 4 doses. Compound 1 was administered via oral gavage once daily for 28 days. Body weight and tumor volume were measured twice per week. Tumor volume was calculated as mean and standard error of the mean for each treatment group.

In a further data set the test system is BECKER. Briefly: Colony formation (CFU) assay, BECKER. The following applies: 336 h, CFU ~14 days, wells with DMSO or 300 nM Compound 1, read-out: Chemotherapy nM IC50s. In kind it is cell-based. The procedure:
as §1, §2

The next data set deals with GOTO. Briefly: Colony formation (CFU) assay, GOTO. It counts as cell-based. The conditions noted are these: 336 h, nervous system, CFU ~14 days, wells with DMSO or 300 nM Compound 1, read-out: Chemotherapy nM IC50s. The procedure:
as §1, §2

The test system of another data set is U251MG. Briefly: Colony formation (CFU) assay, U251MG. The following applies: Homo sapiens, U-251, 336 h, nervous system, CFU ~14 days, wells with DMSO or 300 nM Compound 1, read-out: Chemotherapy nM IC50s. In kind it is cell-based. The procedure: as §1, §2
The mark [6] stands for this setting: CFU ~14 days, wells with DMSO or 300 nM Compound 1, read-out: Chemotherapy nM IC50s.
The mark [7] stands for this setting: chemotherapy agent in combination with 300 nM Compound 1.

Where “and” joins values, the source holds several entries; their conditions need not be identical. Equal entries are not always repeated.

These results are taken from patent US20250213574A1, “THERAPEUTIC COMBINATIONS COMPRISING UBIQUITIN- SPECIFIC-PROCESSING PROTEASE 1 (USP1) INHIBITORS AND CHEMOTHERAPY AGENTS” (KSQ Therapeutics, Inc., priority 2022, published 2025).

With `N.N.[Cl][Pt][Cl]` [Cis., cisplatin], the IC50 in the data set on 5637 (setting [6]) was 598 nM; in the data set with 647V (setting [6]), 1780 nM; in the data set with A549 (setting [6]) it was > 316 nM; with HBCx8 (setting [6]) it was 142 nM; in the data set with HBCx9 (setting [6]), 473 nM; in the data set with HCC1806, 97 nM and 130 nM. For the same compound, the IC50 with HCT116 was 1260 nM and 895 nM; with HT1376 (setting [6]), 734 nM; in the data set with KU1919 (setting [6]), 894 nM; in the data set with NCIH1650 (setting [6]), > 1000 nM; in the data set on NCIH596 (setting [6]), 129 nM; with SUM149PT (setting [6]) it was > 316 nM. For the same compound, the IC50 in the data set with U2OS (setting [6]) is > 316 nM; in the data set on UBLC1 (setting [6]) it was 308 nM; in the data set with UMUC3 (setting [6]), 212 nM. In addition, the synergy score result in the data set on 5637 (setting [7]) is listed as “(12)”; in the data set on 647V (setting [7]), 0; in the data set with A549 (setting [7]) it was “(11)”; in the data set with HBCx8 (setting [7]), “(1)”; with HBCx9 (setting [7]), “(−1)”; with HT1376 (setting [7]), “(10)”. Further, the synergy score result was “(1)” in the data set on KU1919 (setting [7]); “(−1)” with NCIH1650 (setting [7]); “(0)” in the data set with NCIH596 (setting [7]); “(10)” with SUM149PT (setting [7]); “(3)” in the data set with U2OS (setting [7]); “(−2)” with UBLC1 (setting [7]). Moreover, the synergy score entry in the data set with UMUC3 (setting [7]) is recorded as “(1)”. In the data set on various cell lines, the “synergy of combination with USP1 inhibitor” value is reported as “synergy was detected”. Besides, in [1], the “combination MTD” value was 6 mg/kg. In addition, the “reported MTD” value in data set [2] is recorded as 6 mg/kg.
For `COc1ncnc(C2CC2)c1-c1ncc2cnn(Cc3ccc(-c4nc(C(F)(F)F)cn4C(C)C)cc3)c2n1` [Compound 1, 6-(4-cyclopropyl-6-methoxypyrimidin-5-yl)-1-(4-(1-isopropyl-4-(trifluoromethyl)-1H-imidazol-2-yl)benzyl)-1H-pyrazolo[3,4-d]pyrimidine], the “anti-tumor activity (tumor volume) of combination versus single agents” value in data set [3] was “more prolonged anti-tumor activity”; in data set [4], “more prolonged anti-tumor activity”; in data set [5], “superior and more prolonged anti-tumor activity”.
As to `Cn1nnc2c(C(N)=O)ncn2c1=O` [Temozol., Temozolomide], the IC50 in the data set with BECKER, with GOTO and with U251MG was < 1 nM throughout.
